What is called Km is the concentration of substrate that gives half-maximal velocity.

In experiment [1] the test system is Group I self-splicing intron (ribozyme) from the 26S rRNA gene of Pneumocystis carinii, isolate Pc1. In words: In vitro self-splicing of the Group I intron, assayed by splicing of [32P]RNA precursor or by [alpha-32P]GTP incorporation. As to conditions: for inhibition of splicing at 500 μM: inhibitor at 500 μM; for inhibition of splicing of the 26S rRNA intron: result in words, 5 mM MgCl2, 100 μM GTP unless otherwise indicated, 37° C., 20 minutes; for replacement of GTP in the splicing reaction: equal concentrations to GTP; for mode of inhibition (kinetic analysis): relative to GTP/guanosine. Type of experiment: biochemical. As for the experimental part:
Polymerase chain reaction (PCR) amplification (56) of the intron from the 26S rRNA gene and a portion of the 5' and 3' flanking exons (660 nucleotides of amplified rRNA gene), between nucleotides 1963 and 2267 of 26S rRNA of isolate Pc1 was performed with primers 4208 (5'-[…]-3') (SEQ ID NO:33), whose first 17 nucleotides are a bacteriophage SP6 promoter (57), and 4358 (5'-GACGAGGCATTTGGCTACC-3') (SEQ ID NO:35) in a DNA Thermal Cycler (Perkin-Elmer-Cetus), under conditions recommended by the manufacturer. For some experiments a longer PCR product (1296 nucleotides of amplified rRNA gene) was generated by similar methods, using primers 4208 and 3734 (5'-[…]-3') to amplify the region between nucleotides 1963 and 2903 of 26S rRNA. Transcription of PCR product DNA (1 μg) by SP6 RNA polymerase to produce E1-I-E2 RNA precursor (1296 or 660 nucleotides in length) was carried out using the Riboprobe System II (Promega) under the recommended conditions.
Radioactive RNA precursor (1296 nucleotides, 1 nM) was incubated at 37° C. for 30 minutes in the presence of 50 mM Tris-HCl, pH 7.5, 0.4 mM spermidine, 4 units of RNasin, 100 μM guanosine triphosphate (GTP) and the indicated concentrations of MgCl2 in a volume of 10 μl. Reactions were terminated by addition of 10 μl of 8M urea containing 5 mM Na-EDTA, pH 8.0, and 0.025% each of bromphenol blue and xylene cyanol, followed by heating at 65° C. for 3 minutes and PAGE, with visualization by autoradiography. Lane M contains RNA standards (molecular weights 1.77, 1.52, 1.28, 0.78, 0.53, 0.40, 0.28, and 0.16 kd, BRL), 5'-labeled with ^32 p using bacteriophage T4 polynucleotide kinase (Pharmacia). Lane 1, purified RNA precursor; lane 2, GTP omitted, 5 mM MgCl2; lane 3, no MgCl2, 1 mM EDTA; lanes 4-11, reactions run in the presence of 0, 1, 5, 25, 50, 100, 200 or 500 mM MgCl2, respectively. O indicates origin; P, RNA precursor; I, linear intron; E1-E2, spliced RNA product; C, presumed circularized intron. Bands corresponding to the 5' exon (E1) and G-intron-3' exon (I-E2) are not visible on this exposure.
FIGS. 13A through 13D show the inhibition of intron splicing by antibiotics. All experiments were done with 660 nucleotide RNA precursor. In vitro splicing of [^32 P]RNA precursor was performed in the presence of 5 mM MgCl2 and 100 μM GTP (unless otherwise indicated) at 37° C. for 20 minutes as in FIG. 12. Splicing of unpurified transcripts extracted from SP6 RNA polymerase reactions was performed with 12.5 nM of [α-^32 P]GTP replacing non-radioactive GTP. Bands are identified as in FIG. 12. FIG. 13A: Inhibition by gentamicin and tetracycline. Purified [^32 P]RNA precursor splicing was performed as indicated. Lane 1, control without GTP; lane 2, complete reaction without antibiotics; lanes 3-7, gentamicin present at 50, 100, 200, 250 and 500 μM; lanes 8-12, tetracycline present at 10, 50, 100, 200, and 400 μM. FIG. 13B: Inhibition of intron splicing by gentamicin and tetracycline. Splicing of non-radioactive RNA was assayed in the presence of [^32 P]GTP with no antibiotic (lanes 1 and 7), with 50, 100, 200, 300, and 500 μM gentamicin (lanes 2-6), and with 50, 100, 200, and 400 μM tetracycline (lanes 8-11). FIG. 13C: Splicing inhibition by ethidium bromide. Reactions of [^32 P]RNA precursor were run in the presence of 10 μM GTP (except lane 1 which contained neither GTP nor ethidium bromide); lanes 2-7, reactions run in the presence of ethidium bromide at 0, 0.5, 1, 5, 10, and 25 μM, respectively. […] FIG. 13D: Inhibition of splicing by ethidium bromide, as measured by incorporation of [α-^32 P]GTP. Lanes 1-5, reactions run in the presence of 0, 0.5, 1, 5 and 25 μM ethidium bromide, respectively.
FIGS. 14A and 14B show the inhibition of intron splicing by pentamidine. Reactions were performed as in FIG. 13, with 660 nucleotide RNA precursor. FIG. 14A: Assays of splicing of [^32 P]RNA precursor. […]

A further experiment relates to Saccharomyces cerevisiae. As to conditions: grown in glycerol versus fermentable sugars; cited from earlier work.
The test system of experiment [2] is Group I self-splicing intron from the 16S rRNA gene of P. carinii. Nature of the experiment: In vitro self-splicing of the intron from the 16S rRNA gene. Type of experiment: biochemical, Pneumocystis carinii. The following applies: result in words. From the text: Inhibition by aminoglycosides of splicing of other group I introns has previously been described (55,61). […] Some radioactivity remaining at the gel origin and a decrease in precursor entering the gel in the presence of high levels of gentamicin (FIG. 13A) may reflect RNA binding by the antibiotic. […] This mechanism would be consistent with the lack of inhibition of splicing of group II introns by these agents (55,61).
Alternatively, the paired aromatic rings and/or positively charged moieties of pentamidine might act to distort the intron's secondary structure, which is critical to its catalytic function (63). […] If the ability of pentamidine analogues (49) to inhibit splicing correlates with in vivo activity against experimental PCP then this assay would be useful for this purpose.

`O=C(O)C1=CC(=C(c2ccc(O)c(C(=O)O)c2)c2ccc(O)c(C(=O)O)c2)C=CC1=O` [aurintricarboxylic acid]: in experiment [1], the “inhibition of splicing at 500 μM” value was “failed to inhibit splicing by either assay”. Turning to `CCC[C@@H]1C[C@@H](C(=O)N[C@@H]([C@H]2O[C@H](SC)[C@H](O)[C@@H](O)[C@H]2O)[C@H](C)Cl)N(C)C1` [clindamycin], the “inhibition of splicing at 500 μM” value in experiment [1] is “failed to inhibit splicing by either assay”. `CC[n+]1c(-c2ccccc2)c2cc(N)ccc2c2ccc(N)cc21` [ethidium bromide]: in experiment [1], the “inhibition of splicing of the 26S rRNA intron” value is given as “completely inhibiting splicing by either assay”. As to `CC1(C)S[C@@H]2[C@H](NC(=O)[C@H](N)c3ccccc3)C(=O)N2[C@H]1C(=O)O` [Ampicillin], the “inhibition of splicing at 500 μM” value in experiment [1] was “failed to inhibit”. As to `Nc1nc2c(ncn2[C@@H]2O[C@H](COP(=O)(O)O)[C@@H](O)[C@H]2O)c(=O)[nH]1` [GMP, guanosine monophosphate], the “replacement of GTP in the splicing reaction” value in experiment [1] was “replaceable by equal concentrations”.

Take `N=C(N)NCCC[C@H](N)C(=O)O` [arginine]: in experiment [1], the “mode of inhibition (kinetic analysis)” value is listed as “competitively” and the “inhibition of splicing of the 26S rRNA intron” value is “inhibited competitively by high concentrations”. On to `CN(C)C1C(=O)C(C(N)=O)=C(O)C2(O)C(=O)C3=C(O)c4c(O)cccc4C(C)(O)C3CC12` (centres unmarked) [tetracycline], for which, in experiment [1], the “mode of inhibition (kinetic analysis)” value was “non-competitive with GTP” and the “inhibition of splicing of the 26S rRNA intron” value was “inhibits RNA splicing”. For `O=C(N[C@H](CO)[C@H](O)c1ccc([N+](=O)[O-])cc1)C(Cl)Cl` [chloramphenicol], in experiment [1], the “inhibition of splicing at 500 μM” value is reported as “failed to inhibit splicing by either assay”. For `N=C(N)c1ccc(OCCCCCOc2ccc(C(=N)N)cc2)cc1` [Pentamidine], in the experiment on Saccharomyces cerevisiae, the “sensitivity of growth to pentamidine” value was “more sensitive to pentamidine when grown in glycerol than in various fermentable sugars”. Moreover, the “effect on the first step of the splicing reaction” value in experiment [1] (kinetic analysis) is reported as “acting on the first step”. Further, in experiment [1], the “mode of inhibition (kinetic analysis)” value is “non-competitive” and the “inhibition of splicing of the 26S rRNA intron” value was “inhibited splicing”. Besides, the “inhibition of splicing of the 16S rRNA intron” value in experiment [2] was “inhibited splicing”.

As for `COc1ccc(C[C@H](N)C(=O)N[C@H]2[C@@H](O)[C@H](n3cnc4c(N(C)C)ncnc43)O[C@@H]2CO)cc1` [puromycin], the “inhibition of splicing at 500 μM” value in experiment [1] is listed as “failed to inhibit splicing by either assay”. As for `N=C(N)NCCC[C@H](N)C(=O)O` [L-arginine], in experiment [1] (kinetic analysis), the “effect on the first step of the splicing reaction” value was “inhibiting the first step” and the “effect on the second step of the splicing reaction” value is “activate the second step”. Besides, in experiment [1], the “inhibition of splicing of the 26S rRNA intron” value is on record as “greater for L-arginine than D-arginine”.

As to gentamicin, the “sensitivity of splicing assayed by incorporation of [α-32P]GTP into I and I-E2” value in experiment [1] (compared with splicing of radioactive RNA precursor, 12.5 nM [α-32P]GTP) is “less sensitive”. Besides, the “inhibition of splicing of the 26S rRNA intron” value in experiment [1] is recorded as “inhibited splicing”.

Consider `C[C@@H]1C[C@@H]([C@H](O)CC2CC(=O)NC(=O)C2)C(=O)[C@@H](C)C1` [cycloheximide], for which the “inhibition of splicing at 500 μM” value in experiment [1] is reported as “failed to inhibit splicing by either assay”. With `CN[C@@H]1[C@@H](O)[C@@H](O[C@@H]2[C@@H](O)[C@H](O[C@H]3O[C@H]([C@@H](C)O)[C@@H](O)[C@H](O)[C@H]3N)[C@@H](N)C[C@H]2N)OC[C@]1(C)O` [G418], the “inhibition of splicing at 500 μM” value in experiment [1] is “failed to inhibit splicing”. Regarding `[H]/N=C(/N)N[C@H]1[C@H](O)[C@@H](O)[C@H](O[C@@H]2O[C@@H](C)[C@](O)(C=O)[C@H]2O[C@@H]2O[C@@H](CO)[C@H](O)[C@@H](O)[C@@H]2NC)[C@@H](N/C(N)=N\[H])[C@@H]1O` [streptomycin], the “mode of inhibition (kinetic analysis)” value in experiment [1] was “competition with guanosine”.

For tri-arginine, the “potency relative to L-arginine / arginine” value in experiment [1] (inhibition of splicing) is given as “at least 1,000 times”.

`N=C(N)NCCC[C@@H](N)C(=O)O` [D-arginine]: the “inhibition of splicing of the 26S rRNA intron” value in experiment [1] is recorded as “greater for L-arginine than D-arginine”.

Take `Nc1nc2c(ncn2[C@@H]2O[C@H](COP(=O)(O)OP(=O)(O)OP(=O)(O)O)[C@@H](O)[C@H]2O)c(=O)[nH]1` [GTP, guanosine triphosphate]: in experiment [1] (in vitro splicing, 5 mM MgCl2, 37° C.), the Km amounted to 3 µM. On to `Nc1nc2c(ncn2[C@@H]2O[C@H](COP(=O)(O)OP(=O)(O)O)[C@@H](O)[C@H]2O)c(=O)[nH]1` [GDP, guanosine diphosphate], for which, in experiment [1], the “replacement of GTP in the splicing reaction” value was “replaceable by equal concentrations”.

Consider `NC(=O)NCCC[C@H](N)C(=O)O` [citrulline], for which the “inhibition of splicing of the 26S rRNA intron” value in experiment [1] was “no detectable inhibition”.

The values above are taken from patent US5849484A, “In vitro assay for inhibitors of the intron self-splicing reaction in Pneumocystis carinii” (University of Medicine & Dentistry of NJ, priority 1995, dated 1998).
